Measurements reported in PubChem BioAssay (NCI).
Where “and” joins values, the source holds several entries; their conditions need not be identical. Identical values can stand only once.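 Growth conditions: 96-well plates. Treatment: test compound, 48 hours, 5 concentrations. Analysis: linear interpolation between bracketing concentrations; unreached endpoints set to highest concentration. At the GI50, growth is halved. At the TGI there is no net growth.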

How the values were obtained:
Test in all cases: inhibition of tumour cell growth, NCI panel, 48 h
A498 renal = tested on: A498 renal
CAKI-1 renal = tested on: CAKI-1 renal
HCC-2998 colon = tested on: HCC-2998 colon
HL-60(TB) leukemia = tested on: HL-60(TB) leukemia
K-562 leukemia = tested on: K-562 leukemia
MCF7 breast = tested on: MCF7 breast
NCI-H23 lung = tested on: NCI-H23 lung
OVCAR-3 ovarian = tested on: OVCAR-3 ovarian
RPMI-8226 leukemia = tested on: RPMI-8226 leukemia
SK-MEL-28 melanoma = tested on: SK-MEL-28 melanoma
SK-MEL-5 melanoma = tested on: SK-MEL-5 melanoma
SNB-19 CNS = tested on: SNB-19 CNS
TK-10 renal = tested on: TK-10 renal

Row | Compound | TGI (A498 renal) | TGI (CAKI-1 renal) | TGI (HCC-2998 colon) | TGI (HL-60(TB) leukemia) | TGI (K-562 leukemia) | TGI (MCF7 breast) | TGI (NCI-H23 lung) | TGI (OVCAR-3 ovarian) | TGI (RPMI-8226 leukemia) | TGI (SK-MEL-28 melanoma) | TGI (SK-MEL-5 melanoma) | TGI (SNB-19 CNS) | TGI (TK-10 renal) | GI50 (HCC-2998 colon)
1 | Cn1c2c3c(F)c(F)ccc3nc-2cc2ccccc21 | 2.89 µM | 12.2 µM | 3.63 µM | 56.6 µM | > 100 µM | 30 µM | 3.18 µM | 13.6 µM | 11.5 µM | 18.3 µM | 12.8 µM | 18.2 µM | 3.91 µM | 
2 | CC1OC(O[C@H]2CC[C@]3(C=O)[C@H]4CC[C@]5(C)[C@H](C6=CC(=O)OC6)CC[C@]5(O)[C@@H]4C=C[C@]3(O)C2)CC(O)C1O (stereo partly drawn) | 0.611 µM | 0.428 µM | 2.92 µM | 0.689 µM | 9.01 µM | 2.71 µM | 0.494 µM | 0.583 µM | 2.37 µM | 1.7 µM | 0.359 µM | 3.25 µM | 1.64 µM | 
3 | Cc1cc(C)n(C(=O)CSc2nnc(SCC(=O)n3nc(C)cc3C)s2)n1 | > 100 µM | > 100 µM | > 100 µM | > 100 µM | > 100 µM | > 100 µM | > 100 µM | > 100 µM | > 100 µM | > 100 µM | > 100 µM | > 100 µM | > 100 µM | 
4 | N#Cc1c(-c2ccccc2)c(C#N)c(=O)n(C2OC(CO)C(O)C(O)C2O)c1S (stereo not drawn) | > 100 µM | > 100 µM | > 100 µM | > 100 µM | > 100 µM | > 100 µM | > 100 µM | > 100 µM | > 100 µM | > 100 µM | > 100 µM | > 100 µM | > 100 µM | > 100 µM and 40.4 µM
